Laboratory results from US20230148599A1, “FUNGICIDAL MIXTURES CONTAINING PYRAZOLE DERIVATIVES” (FMC Corporation, priority 2020, published 2023).

Key:
Format in all cases: in vivo
Alternaria solani [1] = experiment: Test F1 (comparative): tomato early blight, tomato seedlings; settings: 100 = 100% disease control
From the text: (§1) General protocol for preparing test suspensions for Tests A1-F1: the test compounds were first dissolved in acetone in an amount equal to 3% of the final volume and then suspended at the desired concentration (in ppm) in acetone and purified water (50/50 mix by volume) containing 250 ppm of the surfactant PEG400 (polyhydric alcohol esters). The resulting test suspensions were then used in Tests A1-F1.
(§2) The test suspension was sprayed to the point of run-off on tomato seedlings. The following day the seedlings were inoculated with a spore suspension of Alternaria solani (the causal agent of tomato early blight) and incubated in a saturated atmosphere at 27° C. for 48 h, and then moved to a growth chamber at 20° C. for 3 days, after which time visual disease ratings were made.
(§3) A rating of 100 indicates 100% disease control and a rating of 0 indicates no disease control (relative to the controls).

Botrytis cinerea [2] = experiment: Test E1 (comparative): tomato Botrytis, tomato seedlings; settings: 100 = 100% disease control
From the text: as §1
as §2, with “Botrytis cinerea” for “Alternaria solani”, “Botrytis)” for “early blight)”, “20°” for “27°”, “24°” for “20°”
as §3

Septoria tritici [3] = experiment: Test A1 (comparative): wheat leaf blotch, wheat seedlings; settings: 100 = 100% disease control, 0 = no control
From the text: as §1
(§4) The test solution was sprayed to the point of run-off on wheat seedlings. The following day the seedlings were inoculated with a spore suspension of Septoria tritici (the causal agent of wheat leaf blotch) and incubated in a saturated atmosphere at 24° C. for 48 h, and then moved to a growth chamber at 20° C. for 17 days, after which time disease ratings were made.
as §3

[4] = system: Blumeria graminis f. sp. tritici; experiment: Test C1 (comparative): wheat powdery mildew, wheat seedlings; settings: 100 = 100% disease control
From the text: as §1
The test suspension was sprayed to the point of run-off on wheat seedlings. The following day the seedlings were inoculated with a spore dust of Blumeria graminis f. sp. tritici, (also known as Erysiphe graminis f. sp. tritici, the causal agent of wheat powdery mildew) and incubated in a growth chamber at 20° C. for 8 days, after which time visual disease ratings were made.
as §3

[5] = system: Puccinia recondita f. sp. tritici; experiment: Test B1 (comparative): wheat leaf rust, wheat seedlings; settings: 100 = 100% disease control
From the text: as §1
as §4, with “Puccinia recondita f. sp.” for “Septoria”, “rust)” for “blotch)”, “20°” for “24°”, “24” for “48”, “7” for “17”
as §3

Alternaria solani [6] = experiment: Test F: tomato early blight, preventive spray on tomato seedlings; settings: 50 ppm, 100 = 100% disease control, 0 = no control
Procedure, shortened: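 Preventive test: one day after the compound spray, seedlings were inoculated with A. solani, incubated saturated at 27 °C for 48 h, then kept at 20 °C for 3 days. Test suspensions contained acetone/water 50/50 with 250 ppm PEG400 surfactant. Visual ratings run from 0 (no control) to 100 (full control).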

Botrytis cinerea [7] = experiment: Test E: tomato Botrytis, preventive spray on tomato seedlings; settings: 50 ppm, 100 = 100% disease control, 0 = no control
Procedure, shortened: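 Preventive test: seedlings sprayed to run-off with compound in acetone/water (50/50) plus 250 ppm PEG400, inoculated one day later with B. cinerea spores. Held 48 h saturated at 20° C, then 3 days at 24° C; disease control scored visually from 0 to 100 versus controls.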

Phakopsora pachyrhizi = experiment: Test D: Asian soybean rust, preventive spray on soybean seedlings; settings: 50 ppm, 100 = 100% disease control, 0 = no control
Procedure, shortened: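 Compounds in acetone/water (50/50) with 250 ppm PEG400, dosed in ppm, sprayed to run-off on soybean seedlings; inoculated with P. pachyrhizi spores next day. Held 24 h at 22 °C in saturated air, then 8 days at 22 °C; visual rating of disease control, 0–100, relative to untreated controls.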

[8] = system: Blumeria graminis f. sp. tritici; experiment: Test C: wheat powdery mildew, preventive spray on wheat seedlings; settings: 50 ppm, 100 = 100% disease control, 0 = no control
Procedure, shortened: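 Preventive test: inoculation with spore dust came one day after spraying seedlings to run-off with ppm suspensions in acetone/water (50/50) plus 250 ppm PEG400 surfactant. Visual ratings after 8 days' incubation at 20° C give percent disease control relative to controls.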

Septoria tritici [9] = experiment: Test A: wheat leaf blotch, preventive spray on wheat seedlings; settings: 50 ppm, 100 = 100% disease control, 0 = no control
Procedure, shortened: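 Preventive test: one day after spraying seedlings to run-off (concentrations in ppm; acetone/water, 250 ppm PEG400), Septoria tritici spores applied. Scored after 48 h humid incubation at 24 °C plus 17 days at 20 °C, as percent disease control versus untreated controls (100 = full control).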

[10] = system: Puccinia recondita f. sp. tritici; experiment: Test B: wheat leaf rust, preventive spray on wheat seedlings; settings: 50 ppm, 100 = 100% disease control, 0 = no control
Procedure, shortened: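 Preventive test: compound in acetone/water 50/50 with 250 ppm PEG400 was sprayed onto wheat seedlings one day before inoculation with leaf rust spores. After 24 h in saturated air and 7 days in a growth chamber, both at 20 °C, disease control was scored from 0 to 100 against controls.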

Row | SMILES | Test F1 disease control rating (Alternaria solani [1]; Rate 10 ppm) [%] | Test F1 disease control rating (Alternaria solani [1]; Rate 50 ppm) [%] | Test E1 disease control rating (Botrytis cinerea [2]; Rate 10 ppm) [%] | Test E1 disease control rating (Botrytis cinerea [2]; Rate 50 ppm) [%] | Test A1 disease control rating (Septoria tritici [3]; Rate 10 ppm) [%] | Test A1 disease control rating (Septoria tritici [3]; Rate 50 ppm) [%] | Test C1 disease control rating ([4]; Rate 10 ppm) [%] | Test C1 disease control rating ([4]; Rate 50 ppm) [%] | Test B1 disease control rating ([5]; Rate 10 ppm) [%] | Test B1 disease control rating ([5]; Rate 50 ppm) [%] | Test F disease control rating (Alternaria solani [6]) [%] | Test E disease control rating (Botrytis cinerea [7]) [%] | Test D disease control rating (Phakopsora pachyrhizi) [%] | Test C disease control rating [8] [%] | Test A disease control rating (Septoria tritici [9]) [%] | Test B disease control rating [10] [%]
1 | Cc1nn(C)c(Nc2ccc([N+](=O)[O-])cc2F)c1-c1ccc(F)cc1Cl [Cmpd. from WO 2010/101973, reference compound] | 0 | 0 | 0 | 40 | 45 | 91 | 0 | 0 | 0 | 0 | – | – | – | – | – | –
2 | Cc1nn(C)c(Nc2c(Cl)cccc2[N+](=O)[O-])c1-c1c(F)cccc1F [compound 77] | – | – | – | – | – | – | – | – | – | – | 9 | 72 | 73 | 95 | 100 | 100
3 | COc1cc(F)c(-c2c(C)nn(C)c2Nc2c(F)cc(Cl)cc2[N+](=O)[O-])c(F)c1 [compound 86] | – | – | – | – | – | – | – | – | – | – | 99 | 96 | 77 | 98 | 100 | 100
4 | Cc1cccc([N+](=O)[O-])c1Nc1c(-c2ccc(F)cc2F)c(C)nn1C [compound 177] | – | – | – | – | – | – | – | – | – | – | 9 | 100 | 0 | 50 | 100 | 97
5 | Cc1nn(C)c(Nc2c(Cl)cc(Cl)cc2[N+](=O)[O-])c1-c1ccc(Cl)cc1Cl [compound 146] | – | – | – | – | – | – | – | – | – | – | 40 | 0 | 0 | 0 | 97 | 98
6 | COc1ccc(Nc2c(-c3ccc(F)cc3Cl)c(C)nn2C)c([N+](=O)[O-])c1 [compound 119] | – | – | – | – | – | – | – | – | – | – | 99 | 100 | 92 | 99 | 100 | 100
7 | Cc1nn(C)c(Nc2c(F)cc(Cl)cc2[N+](=O)[O-])c1-c1c(F)cccc1F [compound 98] | – | – | – | – | – | – | – | – | – | – | 98 | 99 | 0 | 93 | 100 | 97
8 | Cc1ccc(Nc2c(-c3ccc(F)cc3Cl)c(C)nn2C)c([N+](=O)[O-])c1 [compound 26] | – | – | – | – | – | – | – | – | – | – | 68 | 100 | 77 | 94 | 100 | 99
9 | Cc1nn(C)c(Nc2c(F)cccc2[N+](=O)[O-])c1-c1c(Cl)cccc1Cl [compound 53] | – | – | – | – | – | – | – | – | – | – | 98 | 98 | 0 | 98 | 100 | 100
10 | Cc1nn(C)c(Nc2c(Cl)cc(F)cc2[N+](=O)[O-])c1-c1c(F)cccc1Cl [compound 49] | – | – | – | – | – | – | – | – | – | – | 26 | 94 | 25 | 95 | 100 | 100
11 | COc1cc(F)c(Nc2c(-c3ccc(F)cc3Br)c(C)nn2C)c([N+](=O)[O-])c1 [compound 165] | – | – | – | – | – | – | – | – | – | – | 100 | 100 | 94 | 98 | 99 | 100
12 | Cc1nn(C)c(Nc2ccccc2[N+](=O)[O-])c1-c1c(F)cccc1Cl [compound 136] | – | – | – | – | – | – | – | – | – | – | 0 | 99 | 0 | 88 | 100 | 80
13 | COc1cc(F)c(-c2c(C)nn(C)c2Nc2c(C)cccc2[N+](=O)[O-])c(F)c1 [compound 162] | – | – | – | – | – | – | – | – | – | – | 98 | 97 | 77 | 99 | 100 | 100
14 | Cc1cc(Cl)c(Nc2c(-c3c(F)cccc3F)c(C)nn2C)c([N+](=O)[O-])c1 [compound 100] | – | – | – | – | – | – | – | – | – | – | 0 | 26 | 0 | 21 | 100 | 89
15 | Cc1nn(C)c(Nc2c(Cl)cc(Cl)cc2[N+](=O)[O-])c1-c1ccc(F)cc1Br [compound 37] | – | – | – | – | – | – | – | – | – | – | 78 | 88 | 0 | 98 | 100 | 100
16 | Cc1cccc([N+](=O)[O-])c1Nc1c(-c2c(F)cc(F)cc2F)c(C)nn1C [compound 167] | – | – | – | – | – | – | – | – | – | – | 98 | 95 | 65 | 98 | 100 | 100
